According to patent US20100098690A1, “PHARMACEUTICAL COMPOSITION” (KYOWA HAKKO KIRIN CO., LTD., priority 2007, published 2010):

Key:
[1] = tested on: human multiple myeloma cell line (NCI-H929); assay: In vitro cell growth inhibition assay (WST-1) with isobologram analysis of combination effect; assay type: cell-based; details: combined with the test compound (hydrochloride of Compound 22), 72 hours, isobologram method
Protocol: (§1) Measurement of the cell growth inhibition rate of the test compound and a combined compound on a human multiple myeloma cell line (NCI-H929), a human non-small-cell lung cancer cell line (PC-9), a human breast cancer cell line (BT-474), a human renal cancer cell line (VMRC-RCZ), a human chronic myeloid leukemia cell line (K-562) and a human acute myeloid leukemia cell line (MOLM-13) was carried out in the following manner.
(§2) For the culture of NCI-H929, Roswell Park Memorial Institute's Medium (RPMI) 1640 medium (Invitrogen) containing 10% fetal calf serum (FCS, Invitrogen), 10 mmol/L HEPES (Invitrogen), 1 mmol/L sodium pyruvate (Invitrogen), 4.5 g/L glucose (Sigma-Aldrich) and 50 μmol/L 2-mercaptoethanol (Invitrogen) was used. For the culture of PC-9, RPMI1640 medium containing 10% FCS was used. For the culture of BT-474, Dulbecco's Modified Eagle Medium (DMEM) (Invitrogen) containing 10% FCS, 1 mmol/L sodium pyruvate, 1.2 mmol/L oxalacetic acid (Sigma-Aldrich), 0.01 mg/mL insulin (Sigma-Aldrich), 10% NCTC-135 medium (Sigma-Aldrich), 4 mmol/L L-glutamine (Invitrogen), 1.5 g/L sodium hydrogencarbonate (Invitrogen) and 4.5 g/L glucose was used.
(§3) NCI-H929 cells were suspended to 12.5×10^4 cells/mL with culture medium (PC-9, 0.625×10^4 cells/mL; BT-474, 12.5×10^4 cells/mL; VMRC-RCZ, 2.5×10^4 cells/mL; MOLM-13, 12.5×10^4 cells/mL; K-562, 6.25×10^4 cells/mL), and the cell suspensions were seeded to the wells of 96-well U-bottom plates (Nalge Nunc International) in an amount of 80 μL/well, followed by incubation in a 5% CO2 incubator at 37° C. for 5 hours (PC-9, BT-474 and VMRC-RCZ, 24 hours; MOLM-13 and K-562, 4 hours).
(§4) The solutions of the test compound and the combined compound diluted with culture medium were added to the plates in an amount of 10 μL/well, respectively, followed by further incubation in a 5% CO2 incubator at 37° C. for 72 hours. WST-1 reagent {4-[3-(4-iodophenyl)-2-(4-nitrophenyl)-2H-5-tetrazolio]-1,3-benzene disulfonate sodium salt} (Roche Diagnostics) was added to the wells in an amount of 10 μL/well and the plates were incubated in a CO2 incubator for 2 hours at 37° C. The absorbance at 450 nm (control wavelength: 655 nm) was measured using a microplate spectrophotometer SPECTRA max 340PC (Molecular Devices). Separately, the solvent used for preparation of each compound solution alone was added to the wells, and the absorbance was measured in the same manner as above after 72-hour incubation carried out in the same manner as above and also immediately after the addition of the solvent. The cell growth inhibition rate on the cells in the compound-added groups (groups treated with the test compound alone, the combined compound alone, or both compounds) was calculated according to the following equation.
(§5) The combined effect was analyzed using the isobologram method [International Journal of Radiation Oncology, Biology, Physics, Vol. 5, p. 85 (1979)]. Judgment of the efficacy of combination therapy was carried out according to the method described in International Journal of Radiation Oncology, Biology, Physics, Vol. 5, p. 85 (1979), Ibid., Vol. 5, p. 1145 (1979), etc.

[2] = tested on: human multiple myeloma NCI-H929 cells; assay: Antitumor effect in a mouse model transplanted with human multiple myeloma NCI-H929 cells (combination with bortezomib); assay type: in vivo, Fox C.B-17/Icr-scidJcl mice; details: day 14; test compound 50 mg/kg i.v. and bortezomib 1 mg/kg i.v., once a day on days 0, 3, 7 and 10
Protocol: On the day before the transplantation of cancer cells, 0.3 mg/mouse of an anti-asialo GM1 antibody (ca. 10 mg protein/1 mL vial) (Wako Pure Chemical Industries, Ltd.) was intraperitoneally administered to Fox C.B-17/Icr-scidJcl mice (Clea Japan, Inc.). NCI-H929 cells were cultured in RPMI1640 medium containing 10% fetal calf serum (FCS) in a 5% CO2 incubator at 37° C. and then transplanted into the abdominal subcutaneous tissue of the mice in an amount of 1×10^7 cells/mouse. Ten days after the transplantation, the longer diameter and shorter diameter of the tumor subcutaneously grown were measured with slide calipers, and the tumor volume was calculated according to the following equation.
(§7) At the same time, the body weight of each mouse was measured, and the mice were divided into the following groups of 5 mice each so that the mean tumor volume and the mean body weight become uniform. The day was defined as day 0 of the administration test, and administration was started.
The test compound was dissolved in physiological saline (Otsuka Pharmaceutical Co., Ltd.) at a concentration of 5 mg/mL and intravenously administered from the caudal vein in a dose of 0.01 mL/g body weight of mouse (50 mg/kg) once a day on days 0, 3, 7 and 10. […]

[3] = tested on: human acute myeloid leukemia cell line (MOLM-13); assay: In vitro cell growth inhibition assay (WST-1) with isobologram analysis of combination effect; assay type: cell-based; details: combined with the test compound (hydrochloride of Compound 22), 72 hours, isobologram method
Protocol: as §1
(§6) For the culture of VMRC-RCZ, Minimum Essential Medium (MEM) (Invitrogen) containing 10% FCS, 0.1 mmol/L Non-Essential Amino Acids (NEAA, Invitrogen), 4 mmol/L HEPES, 2 mmol/L L-glutamine and 1.5 g/L sodium hydrogencarbonate was used. For the culture of K-562, Iscove's Modified Dulbecco's Medium (IMDM) (Invitrogen) containing 10% FCS was used. For the culture of MOLM-13, RPMI1640 medium containing 10% FCS was used.
as §3, with “hours). […]” for “hours).”

[4] = tested on: human non-small-cell lung cancer cell line (PC-9); assay: as above; assay type: cell-based; details: combined with the test compound (hydrochloride of Compound 22), 72 hours, isobologram method
Protocol: as §1, §2, §3, §4, §5

[5] = tested on: human lung cancer NCI-H596 cells; assay: Antitumor effect in a mouse model transplanted with human lung cancer NCI-H596 cells; assay type: in vivo, BALB/cAJcl-nu mice; details: day 11; test compound 100 mg/kg i.v. twice a day x 5 days; gefitinib 100 mg/kg oral once a day x 5 days
Protocol: NCI-H596 cells were cultured in RPMI1640 medium containing 10% fetal calf serum (FCS) in a 5% CO2 incubator at 37° C. and then transplanted into the abdominal subcutaneous tissue of BALB/cAJcl-nu mice (Clea Japan, Inc.) in an amount of 1×10^7 cells/mouse. From the mice in which tumor grew, the tumor was excised and the tumor tissue was cut into ca. 8 mm^3 tissue pieces and then transplanted into the abdominal subcutaneous tissue of BALB/cAJcl-nu mice (Clea Japan, Inc.) using a trocar. Seventeen days after the transplantation, the longer diameter and shorter diameter of the subcutaneous tumor were measured with slide calipers, and the tumor volume was calculated according to the following equation.
as §7
(§8) The test compound was dissolved in physiological saline (Otsuka Pharmaceutical Co., Ltd.) at a concentration of 10 mg/mL and intravenously administered from the caudal vein in a dose of 0.01 mL/g body weight of mouse (100 mg/kg) twice a day for consecutive days from day 0 to day 4. […]

[6] = tested on: human chronic myeloid leukemia cell line (K-562); assay: In vitro cell growth inhibition assay (WST-1) with isobologram analysis of combination effect; assay type: cell-based; details: combined with the test compound (hydrochloride of Compound 22), 72 hours, isobologram method
Protocol: as §1, §6
as §3, with “hours). […]” for “hours).”

[7] = tested on: human breast cancer cell line (BT-474); assay: as above; assay type: cell-based; details: combined with the test compound (hydrochloride of Compound 22), 72 hours, isobologram method
Protocol: as §1, §3
The solutions of the test compound and the combined compound diluted with culture medium were added to the plates in an amount of 10 μL/well, respectively, followed by further incubation in a 5% CO2 incubator at 37° C. for 72 hours. WST-1 reagent {4-[3-(4-iodophenyl)-2-(4-nitrophenyl)-2H-5-tetrazolio]-1,3-benzene disulfonate sodium salt} (Roche Diagnostics) was added to the wells in an amount of 10 μL/well and the plates were incubated in a CO2 incubator for 2 hours at 37° C.

[8] = tested on: human multiple myeloma NCI-H929 cells; assay: Antitumor effect in a mouse model transplanted with human multiple myeloma NCI-H929 cells (combination with melphalan); assay type: in vivo, Fox C.B-17/Icr-scidJcl mice; details: day 14; test compound 50 mg/kg i.v. on days 0, 3, 7 and 10; melphalan 4 mg/kg i.v. on day 0
Protocol: On the day before the transplantation of cancer cells, 0.3 mg/mouse of an anti-asialo GM1 antibody (ca. 10 mg protein/1 mL vial) (Wako Pure Chemical Industries, Ltd.) was intraperitoneally administered to Fox C.B-17/Icr-scidJcl mice (Clea Japan, Inc.). NCI-H929 cells were cultured in RPMI1640 medium containing 10% fetal calf serum (FCS) in a 5% CO2 incubator at 37° C. and then transplanted into the abdominal subcutaneous tissue of the mice in an amount of 1×10^7 cells/mouse.
The day was defined as day 0 of the administration test, and administration was started.
The test compound was dissolved in physiological saline (Otsuka Pharmaceutical Co., Ltd.) at a concentration of 5 mg/mL and intravenously administered from the caudal vein in a dose of 0.01 mL/g body weight of mouse (50 mg/kg) once a day on days 0, 3, 7 and 10.
Melphalan was suspended in physiological saline (Otsuka Pharmaceutical Co., Ltd.) at a concentration of 0.4 mg/mL and intravenously administered from the caudal vein in a dose of 0.01 mL/g body weight of mouse (4 mg/kg) once a day on day 0. • A. Negative control group (Control): neither test compound nor melphalan administered • B. Test compound alone group: 50 mg/kg (once a day/administered on days 0, 3, 7 and 10) • C. […]
On and after day 0, the tumor volume was measured twice a week. […]

[9] = tested on: human breast cancer KPL-4 cells; assay: Antitumor effect in a mouse model transplanted with human breast cancer KPL-4 cells; assay type: in vivo, BALB/cAJcl-nu mice; details: day 10; test compound 100 mg/kg i.v. twice a day x 5 days; paclitaxel 25 mg/kg i.v. days 0 and 3; trastuzumab 50 mg/kg i.v. days 0, 3, 7, 10, 14 and 17
Protocol: KPL-4 cells were cultured in DMEM containing 10% fetal calf serum (FCS) in a 5% CO2 incubator at 37° C. and then transplanted into the abdominal subcutaneous tissue of BALB/cAJcl-nu mice (Clea Japan, Inc.) in an amount of 1×10^7 cells/mouse. From the mice in which tumor grew, the tumor was excised and the tumor tissue was cut into ca. 8 mm^3 tissue pieces and then transplanted into the abdominal subcutaneous tissue of BALB/cAJcl-nu mice (Clea Japan, Inc.) using a trocar. Eighteen days after the transplantation, the longer diameter and shorter diameter of the subcutaneous tumor were measured with slide calipers, and the tumor volume was calculated according to the following equation.
as §7, §8

[10] = tested on: human renal cancer cell line (VMRC-RCZ); assay: In vitro cell growth inhibition assay (WST-1) with isobologram analysis of combination effect; assay type: cell-based; details: combined with the test compound (hydrochloride of Compound 22), 72 hours, isobologram method
Protocol: as §1
For the culture of VMRC-RCZ, Minimum Essential Medium (MEM) (Invitrogen) containing 10% FCS, 0.1 mmol/L Non-Essential Amino Acids (NEAA, Invitrogen), 4 mmol/L HEPES, 2 mmol/L L-glutamine and 1.5 g/L sodium hydrogencarbonate was used. […]
The solutions of the test compound and the combined compound diluted with culture medium were added to the plates in an amount of 10 μL/well, respectively, followed by further incubation in a 5% CO2 incubator at 37° C. for 72 hours. […] The absorbance at 450 nm (control wavelength: 655 nm) was measured using a microplate spectrophotometer SPECTRA max 340PC (Molecular Devices). Separately, the solvent used for preparation of each compound solution alone was added to the wells, and the absorbance was measured in the same manner as above after 72-hour incubation carried out in the same manner as above and also immediately after the addition of the solvent. […]

Structure (SMILES): CC(C)C[C@H](NC(=O)[C@H](Cc1ccccc1)NC(=O)c1cnccn1)B(O)O [Bortezomib, bortezomib]
- Combination effect of test compound and each compound [1]: Envelope of additivity
- T/C (V/V0 of each group divided by V/V0 of the negative control group) [2]: 0.45

Structure (SMILES): Nc1ccn([C@@H]2O[C@H](CO)[C@@H](O)[C@@H]2O)c(=O)n1 [Cytarabine, cytarabine]
- Combination effect of test compound and each compound [3]: Envelope of additivity

Structure (SMILES): CC(=O)O[C@@]12CO[C@@H]1C[C@H](O)[C@@]1(C)C(=O)[C@H](O)C3=C(C)[C@@H](OC(=O)[C@H](O)[C@@H](NC(=O)OC(C)(C)C)c4ccccc4)C[C@@](O)([C@@H](OC(=O)c4ccccc4)[C@H]21)C3(C)C [Docetaxel, docetaxel]
- Combination effect of test compound and each compound [4]: Envelope of additivity

Structure (SMILES): C#Cc1cccc(Nc2ncnc3cc(OCCOC)c(OCCOC)cc23)c1 [Erlotinib, erlotinib]
- Combination effect of test compound and each compound [4]: Sub-additive

Structure (SMILES): COc1cc2ncnc(Nc3ccc(F)c(Cl)c3)c2cc1OCCCN1CCOCC1 [Gefitinib, gefitinib]
- Combination effect of test compound and each compound [4]: Envelope of additivity
- T/C (V/V0 of each group divided by V/V0 of the negative control group) [5]: 0.74

Structure (SMILES): Cc1ccc(NC(=O)c2ccc(CN3CCN(C)CC3)cc2)cc1Nc1nccc(-c2cccnc2)n1 [Imatinib, imatinib]
- Combination effect of test compound and each compound [6]: Sub-additive

Structure (SMILES): CS(=O)(=O)CCNCc1ccc(-c2ccc3ncnc(Nc4ccc(OCc5cccc(F)c5)c(Cl)c4)c3c2)o1 [Lapatinib, lapatinib]
- Combination effect of test compound and each compound [7]: Envelope of additivity

Structure (SMILES): Nc1cccc2c1CN(C1CCC(=O)NC1=O)C2=O (stereo not shown) [Lenalidomide, lenalidomide]
- Combination effect of test compound and each compound [1]: Envelope of additivity

Structure (SMILES): N[C@@H](Cc1ccc(N(CCCl)CCCl)cc1)C(=O)O [Melphalan, melphalan]
- Combination effect of test compound and each compound [1]: Envelope of additivity
- T/C (V/V0 of each group divided by V/V0 of the negative control group) [8]: 0.63

Structure (SMILES): CC(=O)O[C@H]1C(=O)[C@@]2(C)[C@H]([C@H](OC(=O)c3ccccc3)[C@]3(O)C[C@H](OC(=O)[C@H](O)[C@@H](NC(=O)c4ccccc4)c4ccccc4)C(C)=C1C3(C)C)[C@]1(OC(C)=O)CO[C@@H]1C[C@@H]2O [Paclitaxel, paclitaxel]
- T/C (V/V0 of each group divided by V/V0 of the negative control group) [9]: 0.094
- Combination effect of test compound and each compound [4]: Envelope of additivity

Structure (SMILES): CNC(=O)c1cc(Oc2ccc(NC(=O)Nc3ccc(Cl)c(C(F)(F)F)c3)cc2)ccn1 [Sorafenib, sorafenib]
- Combination effect of test compound and each compound [10]: Supra-additive

Structure (SMILES): O=C(CCCCCCC(=O)Nc1ccccc1)NO [Vorinostat, vorinostat]
- Combination effect of test compound and each compound [1]: Sub-additive
